Measured values from patent publication US20220387304A1, “MULTI-LAYERED NANOPARTICLE COATED SUBSTRATES FOR DRUG DELIVERY” (The UAB Research Foundation, priority 2019, published 2022).
Read-outs that look alike come from different tables or passages of the source.

How the values were obtained:
Interleukin-8 (IL-8) = test: LPS-induced IL-8 secretion from HSNEC (ELISA); assay type: cell-based, human; conditions: n=3
Excerpt: (§1) Primary HSNECs were collected with prior approval of the Institutional Review Board at University of Alabama at Birmingham (UAB) (IRB-120305017). Written informed consent from each participant was collected and subjects were screened and negative for a mutation in the cystic fibrosis transmembrane conductance regulator gene. Primary HSNECs were derived from turbinate mucosa from 3 healthy donors undergoing surgery for non-inflammatory conditions and cultured on collagen-coated Costar 6.5-mm-diameter permeable filter supports (Corning, Lowell, Mass.) submerged in established culture media. Differentiation and ciliogenesis occurred in all cultures within 10 to 14 days.^17-26 Matured HSNECs with resistance over 300 Ω/cm^2 and 80% field ciliogenesis by inverted microscopy were subjected to experiments.
After the incubation period, the basal media (600 μL) were collected and measured for IL-8 concentration in each sample according to the manufacture's protocol (R&D systems, Minneapolis, Minn.). The secreted IL-8 concentration in each sample was evaluated by measuring the absorbance at 450 nm using a microplate reader (Synergy HK, BIO-TEK Instruments, Winooski, Vt.). All samples were performed in triplicate.
To evaluate the anti-inflammatory effects of azithromycin on HSNEC, cells were stimulated with 25 μg/ml of P. aeruginosa lipopolysaccharide (LPS) for 2 hours, and treated with incremental azithromycin concentrations (6, 60, and 180 μg/ml) (FIG. 13). After a 24-hour incubation period, the basolateral media was harvested and secreted IL-8 was measured.

HSNECs [1] = test: Ciliary beat frequency analysis; assay type: cell-based, human
Experimental: After applying 100 μL of sterilized PBS as control or PBS containing drug to the apical surface of the cells, the motion images were acquired for 30 minutes. Under each condition, image acquisition was performed using a Basler area scan high-speed monochromatic digital video camera (Basler AG, Ahrensburg, Germany) at a sampling rate of 100 frames per second. The Sisson-Ammons Video Analysis (SAVA) system was used to acquire CBF. Baseline CBF recording was conducted in the previously described manner, and each analysis of CBF was normalized to fold-change over baseline CBF Hz (treatment/baseline).^28

HSNECs [2] = test: HSNEC viability LDH assay; assay type: cell-based, human
Excerpt: Concentration gradients generated from internal standards (with positive controls) provided by the manufacturer render a theoretical kit detection range in biological samples containing IL-8. […] Louis, Mo.). […] The resulting formazan absorbs maximally at 492 nm and can be measured quantitatively at 490 nm. Total LDH in each sample was expressed as ng/ml.

HSNECs [3] = conditions: human, 30 μg/ml
Excerpt: as §1

HSNECs [4] = test: Paracellular permeability of FITC dextran across HSNECs; assay type: cell-based, human; conditions: for average paracellular permeability of dextran particles: human
Experimental: The diffusion-barrier of […] is determined by a tight epithelial barrier and tight junction formation and is impacted by a number of chemicals. […] The permeated concentrations of FITC dextran were quantified by a fluorescence microplate reader.

SMILES	secreted IL-8 (Interleukin-8 (IL-8); ciprofloxacin 2.4 μg/ml alone with LPS exposure)	ciliary beat frequency (HSNECs [1])	cellular viability of HSNECs, LDH (HSNECs [2])	secreted IL-8 (Interleukin-8 (IL-8); azithromycin 6 μg/ml, 25 μg/ml LPS 2 hours, 24-hour incubation)	secreted IL-8 (Interleukin-8 (IL-8); azithromycin 60 μg/ml, 25 μg/ml LPS 2 hours, 24-hour incubation)	secreted IL-8 (Interleukin-8 (IL-8); azithromycin 180 μg/ml, 25 μg/ml LPS 2 hours, 24-hour incubation)	normalized TEER (HSNECs [3]; 3 h)	normalized TEER (HSNECs [3]; 6 h)	paracellular permeability of HSNECs over time (HSNECs [4])	average paracellular permeability of dextran particles (HSNECs [4]; 3 h)	average paracellular permeability of dextran particles (HSNECs [4]; 6 h)
O=C(O)c1cn(C2CC2)c2cc(N3CCNCC3)c(F)cc2c1=O [ciprofloxacin]	6.40 ± 0.26 ng/mL	No significant difference in ciliary beat frequency	No detrimental effect on the cellular viability	–	–	–	–	–	–	–	–
CC[C@H]1OC(=O)[C@H](C)[C@@H](O[C@H]2C[C@@](C)(OC)[C@@H](O)[C@H](C)O2)[C@H](C)[C@@H](O[C@@H]2O[C@H](C)C[C@H](N(C)C)[C@H]2O)[C@](C)(O)C[C@@H](C)CN(C)[C@H](C)[C@@H](O)[C@]1(C)O [azithromycin]	–	No significant difference in ciliary beat frequency	No detrimental effect on the cellular viability	4.579 ± 0.399 ng/mL	4.312 ± 0.057 ng/mL	4.269 ± 0.258 ng/mL	1.14+/−0.06 Ω/cm^2	1.02+/−0.37 Ω/cm^2	No alterations in average paracellular permeability	0.10+/−0.15%	3.44+/−0.24%
